# Read-outs that look alike come from different tables or passages of the source. Marks after values point to notes of the source that are not given here.
# Tests used:
# [1] = Stability of gallic acid at pH 5.5 over 24 h; assay type: physicochemical
# [2] = test system: rabbits; assay: Oral LD50 in rabbits (literature); assay type: in vivo, rabbit; settings: for equivalent dose of the LD50 for a human equivalent of 75 kg: for 10 days
# Protocol: For a human equivalent of 75 kg, the equivalent dose would be 210,000 and 255,000 mg/day for 10 days.
# [3] = test system: rabbits; settings: cited from earlier work
# [4] = target: T1, Tannase sourced from Aspergillus oryzae (Aspergillus oryzae, UniProt P78581); assay: Tannase (10^−3 U/mL) hydrolysis of galloyl glycosides, LC-MS; assay type: biochemical
# T1 construct: purchased
# Protocol: Standards solutions of monogalloyl glucose, pentagalloyl glucose, and a gallotannin isolate were incubated with tannase at 10^−3 U/mL to characterize the by-products and relative rates of galloyl derivative hydrolysis. 250 μL of 200 ppm monogalloyl glucose or pentagalloyl glucose were incubated with 650 μL of buffer set to the enzyme's optimum conditions (pH 5.5, 0.1 M citric acid buffer, 30° C.), and 100 μL of tannase 10^−3 U/mL for final standard concentrations of 50 ppm. […] Experiments were performed in a static water bath and prepared in triplicate for each time point at 0, 0.016, 0.033, 0.050, 0.083, 0.167, 0.5, 1, 1.5, 2, 3, 4 h. To end enzymatic activity, solutions were immediately diluted with 1000 μL 0.1% formic acid MeOH. Lastly, samples were filtered with a 0.45 μm syringe filter prior to LC-MS analysis.
# Galloyl derivatives were characterized and quantified by use of LC-MS on a Thermo Finnigan HPLC. Separations were in reversed-phase using a Finnigan Surveyor HPLC coupled to a Surveyor PDA detector and gradient separations were performed using a Phenomenex Kinetex™ (Bannockburn, II) C18 column, (150×4.6 mm, 2.6 μm) at room temperature. Injections were made into the column by use of a 50 μL sample loop. […] A gradient was run of 0% Phase B for 2 min and changed to 10% Phase B in 4 min, 10% Phase B was held to 10 min, 10 to 40% Phase B in 25 min, and 40% to 65% Phase B in 35 min, 65% to 85% Phase B in 41 min, 85% was held to 49 min before returning to initial conditions. The electrospray interface worked in negative ionization mode. Source and capillary temperatures were set at 325° C., source voltage was 4.0 kV, capillary voltage was set at −47 V, and collision energy for MS/MS analysis was set at 35 eV. The instrument operated with sheath gas and auxiliary gas (N2) flow rates set at 10 units/min and 5 units/min, respectively. The instrument was tuned specifically for pentagalloyl glucose. […] Digalloyl glucoses, and trigalloyl glucoses were quantified at 280 nm and reported as equivalents of monogalloyl glucose. Tetragalloyl glucose and higher were quantified and reported as pentagalloyl glucose equivalents.
# Tannase sourced from Aspergillus oryzae was incubated with standard solutions of monogalloyl glucose, pentagalloyl glucose, and a gallotannin isolate sourced from mango in an effort to characterize and quantify the intermediates formed during hydrolysis. […] Characterization of the different galloyl derivatives that can be formed during tannase hydrolysis is critical as they are likely to have different bio efficacies.
# [5] = test system: 3T3-L1 adipocytes; settings: cited from earlier work
# [6] = target: T2, tannase (Aspergillus oryzae, UniProt P78581); assay: Tannase (20 U/mL) hydrolysis to free gallic acid, rhodanine assay; assay type: biochemical
# T2 construct: purchased
# T2 sequence (P78581 19-588): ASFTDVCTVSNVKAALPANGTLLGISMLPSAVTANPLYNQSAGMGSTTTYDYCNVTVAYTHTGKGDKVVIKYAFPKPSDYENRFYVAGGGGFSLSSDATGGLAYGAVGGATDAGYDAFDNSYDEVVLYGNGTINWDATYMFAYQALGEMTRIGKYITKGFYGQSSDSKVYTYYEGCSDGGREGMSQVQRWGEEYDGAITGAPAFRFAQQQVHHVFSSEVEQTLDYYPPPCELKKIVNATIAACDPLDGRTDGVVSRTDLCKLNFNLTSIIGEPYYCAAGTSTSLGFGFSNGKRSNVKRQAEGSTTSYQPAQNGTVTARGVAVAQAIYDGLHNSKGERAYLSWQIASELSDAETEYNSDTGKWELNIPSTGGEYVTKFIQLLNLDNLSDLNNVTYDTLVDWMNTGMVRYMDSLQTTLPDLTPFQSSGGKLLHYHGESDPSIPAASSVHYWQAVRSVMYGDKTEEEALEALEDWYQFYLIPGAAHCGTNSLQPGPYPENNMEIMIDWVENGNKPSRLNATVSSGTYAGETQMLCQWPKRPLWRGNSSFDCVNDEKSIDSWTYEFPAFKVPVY
# Protocol: 200 uL of 641±16 and 2051±46 ppm GAE gallotannin isolate was aliquotted into test tubes and made up to 1 mL with 20 U/mL tannase hydrated in pH 5.5, 0.1 M citrate buffer. Samples were incubated for 0, 0.16 (10 min), 0.5, 1, 2, 4, 6, 12, and 24 h at 35° C. in a static water bath. After each time point had elapsed, 1 mL of 0.1% formic acid MeOH was added to each test tube. 50 and 100 ppm monogalloyl glucose was also treated with tannase under the same conditions. The total pro-gallic acid content of the gallotannin isolate and monogalloyl glucose were quantified by the colorimetric rhodanine assay modified from Inoue & Hagerman (1988). 600 μL of 0.667% rhodanine in methanol was added to 400 μL of hydrolyzed tannin fraction sample. After 10 min, 400 μL of 0.5 M NaOH was added to develop color for 20 min until bringing the final volume to 10 mL with deionized water. Absorbance was measured at 520 nm.
compound,measurement,setting,value
"O=C(O)c1cc(O)c(O)c(O)c1 [Gallic Acid, gallic acid]",stability of gallic acid at the conditions of the method,"[1]; 50 and 100 ppm gallic acid in pH 5.5 buffer, after 24 h",did not show any indication of degradation
same,Gallic acid concentration (stability at pH 5.5),"[1]; gallic acid 50 mg/L, pH 5.5, 0 h",48.2 ± 1.28 ^a mg/L
same,Gallic acid concentration (stability at pH 5.5),"[1]; gallic acid 50 mg/L, pH 5.5, 1 h",50.4 ± 0.45 ^b mg/L
same,Gallic acid concentration (stability at pH 5.5),"[1]; gallic acid 50 mg/L, pH 5.5, 2 h",51.2 ± 0.62 ^b mg/L
same,Gallic acid concentration (stability at pH 5.5),"[1]; gallic acid 50 mg/L, pH 5.5, 12 h",47.2 ± 0.87 ^b mg/L
same,Gallic acid concentration (stability at pH 5.5),"[1]; gallic acid 50 mg/L, pH 5.5, 24 h",49.4 ± 0.37 ^b mg/L
same,Gallic acid concentration (stability at pH 5.5),"[1]; gallic acid 100 mg/L, pH 5.5, 0 h",107 ± 3.07 ^a mg/L
same,Gallic acid concentration (stability at pH 5.5),"[1]; gallic acid 100 mg/L, pH 5.5, 1 h",102 ± 2.43 ^b mg/L
same,Gallic acid concentration (stability at pH 5.5),"[1]; gallic acid 100 mg/L, pH 5.5, 2 h",111 ± 1.63 ^b mg/L
same,Gallic acid concentration (stability at pH 5.5),"[1]; gallic acid 100 mg/L, pH 5.5, 12 h",97.9 ± 1.38 ^b mg/L
same,Gallic acid concentration (stability at pH 5.5),"[1]; gallic acid 100 mg/L, pH 5.5, 24 h",108 ± 1.11 ^b mg/L
same,equivalent dose of the LD50 for a human equivalent of 75 kg,[2],"210,000 mg/day"
same,oral LD50,"[3]; rabbit, in vivo, po",2800 mg/kg/day
O=C(OC[C@H]1O[C@@H](OC(=O)c2cc(O)c(O)c(OC(=O)c3cc(O)c(O)c(O)c3)c2)[C@H](OC(=O)c2cc(O)c(O)c(OC(=O)c3cc(O)c(O)c(O)c3)c2)[C@@H](OC(=O)c2cc(O)c(O)c(OC(=O)c3cc(O)c(O)c(O)c3)c2)[C@@H]1OC(=O)c1cc(O)c(O)c(OC(=O)c2cc(O)c(O)c(O)c2)c1)c1cc(O)c(O)c(OC(=O)c2cc(O)c(O)c(O)c2)c1 [tannic acid],equivalent dose of the LD50 for a human equivalent of 75 kg,[2],"255,000 mg/day"
same,margin of the highest selected study dose (566 mg/L) below the LD50 dose,[2]; human equivalent of 75 kg,451 fold
same,oral LD50,"[3]; rabbits, for 10 days",3400 mg/kg/day
O=C(OC[C@H]1O[C@@H](OC(=O)c2cc(O)c(O)c(O)c2)[C@H](OC(=O)c2cc(O)c(O)c(O)c2)[C@@H](OC(=O)c2cc(O)c(O)c(O)c2)[C@@H]1OC(=O)c1cc(O)c(O)c(O)c1)c1cc(O)c(O)c(O)c1 [pentagalloyl glucose],total pro-gallic acid content generated (molar basis),[4]; 2 h incubation,45.5±0.53%
same,pentagalloyl glucose hydrolyzed,"[4]; 2 h incubation, pH 5.5, 30° C.",97.2±0.27%
"Oc1cccc(O)c1O [PG, pyrogallol]",adipogenesis and lipid accumulation,[5],inhibit adipogenesis and reduce lipid accumulation
same,thermogenesis,[5],promotes thermogenesis
monogalloyl glucose,time to reach the same amount of generated gallic acid as pentagalloyl glucose at 2 h,[4],4 h
same,total pro-gallic acid content generated (molar basis),[4]; 2 h incubation,28.9±0.26%
same,hydrolysis to free gallic acid,[6]; 1 h incubation with 20 U/mL of tannase,completely hydrolyzed to free gallic acid
same,Free gallic acid from hydrolysis with 20 U/mL of tannase,"[6]; monogalloyl glucose 50 mg/L, pH 5.5, 0 h",1.26 ± 0.13 ^a mg/L
same,Free gallic acid from hydrolysis with 20 U/mL of tannase,"[6]; monogalloyl glucose 50 mg/L, pH 5.5, 1 h",19.9 ± 0.13 ^b mg/L
same,Free gallic acid from hydrolysis with 20 U/mL of tannase,"[6]; monogalloyl glucose 50 mg/L, pH 5.5, 2 h",20.2 ± 0.88 ^b mg/L
same,Free gallic acid from hydrolysis with 20 U/mL of tannase,"[6]; monogalloyl glucose 50 mg/L, pH 5.5, 12 h",20.1 ± 0.25 ^b mg/L
same,Free gallic acid from hydrolysis with 20 U/mL of tannase,"[6]; monogalloyl glucose 50 mg/L, pH 5.5, 24 h",19.9 ± 0.87 ^b mg/L
same,Free gallic acid from hydrolysis with 20 U/mL of tannase,"[6]; monogalloyl glucose 100 mg/L, pH 5.5, 0 h",1.76 ± 0.25 ^a mg/L
same,Free gallic acid from hydrolysis with 20 U/mL of tannase,"[6]; monogalloyl glucose 100 mg/L, pH 5.5, 1 h",39.7 ± 0.50 ^b mg/L
same,Free gallic acid from hydrolysis with 20 U/mL of tannase,"[6]; monogalloyl glucose 100 mg/L, pH 5.5, 2 h",42.5 ± 1.01 ^b mg/L
same,Free gallic acid from hydrolysis with 20 U/mL of tannase,"[6]; monogalloyl glucose 100 mg/L, pH 5.5, 12 h",39.2 ± 1.89 ^b mg/L
same,Free gallic acid from hydrolysis with 20 U/mL of tannase,"[6]; monogalloyl glucose 100 mg/L, pH 5.5, 24 h",35.7 ± 3.14 ^b mg/L

# Source: US20220175893A1, “COMBINATIONS OF TANNASE AND PROBIOTIC FORMULATIONS AND METHODS OF USE FOR IMPROVING TANNIN METABOLISM” (THE TEXAS A&M UNIVERSITY SYSTEM, priority 2019, published 2022)
